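Following 48 hours of exposure in 96-well plates, responses at five concentrations were used to interpolate endpoints linearly. The concentration for 50% growth inhibition is given as GI50.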 Calls of active or inactive are those of the source. Cut-off read from the data, not from the text of the source: active = GI50 up to about 1.1 µM and inactive = higher.
Tests used:
Assay in all cases: NCI-60 cell line screen, 48 h
[1] = system: MOLT-4
[2] = system: UACC-257
[3] = system: OVCAR-8
[4] = system: A498
[5] = system: HL-60
[6] = system: KM12
[7] = system: DMS-114
[8] = system: M19-MEL
[9] = system: DMS-273
[10] = system: CAKI-1
[11] = system: RXF 393
[12] = system: DLD-1
[13] = system: NCI-H23
[14] = system: Malme-3M
[15] = system: RPMI-8226
[16] = system: NCI-H460
[17] = system: TK-10
[18] = system: XF498
[19] = system: RXF 631
[20] = system: NCI-H226
[21] = system: HOP-62
[22] = system: CCRF-CEM
[23] = system: COLO 205
[24] = system: SN12C
[25] = system: HOP-18
[26] = system: UO-31
[27] = system: OVCAR-5
[28] = system: K562
[29] = system: HT-29
[30] = system: HOP-92
[31] = system: A549
[32] = system: SF-268
[33] = system: SK-OV-3
[34] = system: SNB-75
[35] = system: HCT-116
[36] = system: HCT-15
[37] = system: M14
[38] = system: OVCAR-3
[39] = system: SNB-19
[40] = system: 786-0
[41] = system: SW-620
[42] = system: OVCAR-4
[43] = system: LOX IMVI
[44] = system: UACC-62
[45] = system: HCC 2998
[46] = system: NCI-H522
[47] = system: SNB-78
[48] = system: ACHN
[49] = system: IGROV-1
[50] = system: U-251
[51] = system: SR
[52] = system: EKVX
[53] = system: SF-295
[54] = system: KM-20L2
[55] = system: LXFL 529
[56] = system: SF-539
[57] = system: SK-MEL-28
[58] = system: SK-MEL-5
[59] = system: SK-MEL-2

In the case of `COC(=O)C(=O)C(C(=O)C(=O)Nc1ccc([N+](=O)[O-])cc1[N+](=O)[O-])c1nc2ccc([N+](=O)[O-])cc2nc1O` (centres undefined), the GI50 [1] is reported as > 100 µM (inactive), the GI50 [2] is reported as > 100 µM (inactive) and the GI50 [3] is reported as > 100 µM (inactive). The GI50 [4] was 76.9 µM (inactive), the GI50 [5] was > 100 µM (inactive) and the GI50 [6] was > 100 µM (inactive). For the same compound, the GI50 [7] was > 100 µM (inactive), the GI50 [8] was > 100 µM (inactive) and the GI50 [9] was > 100 µM (inactive). The GI50 [10] was > 100 µM (inactive), the GI50 [11] was 43.3 µM (inactive) and the GI50 [12] was > 100 µM (inactive). The GI50 [13] was > 100 µM (inactive), the GI50 [14] was > 100 µM (inactive) and the GI50 [15] was > 100 µM (inactive). For the same compound, the GI50 [16] was > 100 µM (inactive), the GI50 [17] was > 100 µM (inactive) and the GI50 [18] was 76.7 µM (inactive). For the same compound, the GI50 [19] was > 100 µM (inactive), the GI50 [20] was > 100 µM (inactive) and the GI50 [21] was > 100 µM (inactive). For the same compound, the GI50 [22] was > 100 µM (inactive), the GI50 [23] was > 100 µM (inactive) and the GI50 [24] was > 100 µM (inactive). The GI50 [25] was 22.1 µM (inactive), the GI50 [26] was 53 µM (inactive) and the GI50 [27] was > 100 µM (inactive). The GI50 [28] was > 100 µM (inactive), the GI50 [29] was > 100 µM (inactive) and the GI50 [30] was > 100 µM (inactive). The GI50 [31] was > 100 µM (inactive), the GI50 [32] was > 100 µM (inactive) and the GI50 [33] was > 100 µM (inactive). For the same compound, the GI50 [34] was 14.6 µM (inactive), the GI50 [35] was > 100 µM (inactive) and the GI50 [36] was greater than 100 µM. The GI50 [37] was > 100 µM (inactive), the GI50 [38] was > 100 µM (inactive) and the GI50 [39] was > 100 µM (inactive). The GI50 [40] was > 100 µM (inactive), the GI50 [41] was > 100 µM (inactive) and the GI50 [42] was > 100 µM (inactive). For the same compound, the GI50 [43] was > 100 µM (inactive), the GI50 [44] was > 100 µM (inactive) and the GI50 [45] was > 100 µM (inactive). The GI50 [46] was 50.1 µM (inactive), the GI50 [47] was > 100 µM (inactive) and the GI50 [48] was > 100 µM (inactive). The GI50 [49] was > 100 µM (inactive), the GI50 [50] was > 100 µM (inactive) and the GI50 [51] was 43 µM (inactive). The GI50 [52] was 38.2 µM (inactive), the GI50 [53] was > 100 µM (inactive) and the GI50 [54] was > 100 µM (inactive). The GI50 [55] was > 100 µM (inactive).

In the case of `CSC(=S)NNC(=O)c1ccncc1`, the GI50 [1] is reported as 23.2 µM (inactive), the GI50 [2] is reported as 23.8 µM (inactive) and the GI50 [3] is reported as 19.8 µM (inactive). The GI50 [4] was 70 µM (inactive), the GI50 [5] was 20 µM (inactive) and the GI50 [6] was 40.7 µM (inactive). The GI50 [7] was 14.3 µM (inactive), the GI50 [8] was 19.1 µM (inactive) and the GI50 [9] was 21.7 µM (inactive). For the same compound, the GI50 [10] was 21.1 µM (inactive), the GI50 [11] was 16.1 µM (inactive) and the GI50 [12] was 13.5 µM (inactive). For the same compound, the GI50 [13] was 16.1 µM (inactive), the GI50 [14] was 18.8 µM (inactive) and the GI50 [15] was 22.3 µM (inactive). The GI50 [16] was 46.6 µM (inactive), the GI50 [17] was 26.7 µM (inactive) and the GI50 [18] was 21.9 µM (inactive). The GI50 [19] was 30 µM (inactive), the GI50 [56] was 19.8 µM (inactive) and the GI50 [20] was 18.2 µM (inactive). For the same compound, the GI50 [21] was 20.8 µM (inactive), the GI50 [22] was 18.9 µM (inactive) and the GI50 [57] was 18.9 µM (inactive). The GI50 [23] was 34.9 µM (inactive), the GI50 [24] was 21.4 µM (inactive) and the GI50 [25] was 25.2 µM (inactive). For the same compound, the GI50 [26] was 17.8 µM (inactive), the GI50 [27] was 23.9 µM (inactive) and the GI50 [28] was 19.2 µM (inactive). The GI50 [29] was 18.2 µM (inactive), the GI50 [30] was 25.3 µM (inactive) and the GI50 [31] was 61.4 µM (inactive). The GI50 [32] was 21.6 µM (inactive), the GI50 [33] was 28.8 µM (inactive) and the GI50 [34] was 17.5 µM (inactive). For the same compound, the GI50 [58] was 23.7 µM (inactive), the GI50 [35] was 21 µM (inactive) and the GI50 [36] was 15 µM. For the same compound, the GI50 [59] was 17.4 µM (inactive), the GI50 [37] was 19 µM (inactive) and the GI50 [38] was 21.4 µM (inactive). For the same compound, the GI50 [39] was 22.7 µM (inactive), the GI50 [40] was 16.2 µM (inactive) and the GI50 [41] was 11.3 µM (inactive). The GI50 [43] was 16.8 µM (inactive), the GI50 [44] was 16.5 µM (inactive) and the GI50 [45] was 23.6 µM (inactive). For the same compound, the GI50 [46] was 16.9 µM (inactive), the GI50 [47] was 28.2 µM (inactive) and the GI50 [48] was 18.1 µM (inactive). For the same compound, the GI50 [49] was 14.6 µM (inactive), the GI50 [50] was 22.5 µM (inactive) and the GI50 [51] was 14.6 µM (inactive). The GI50 [52] was 22.2 µM (inactive), the GI50 [53] was 22.6 µM (inactive) and the GI50 [54] was 32.7 µM (inactive). For the same compound, the GI50 [55] was 15.7 µM (inactive).

`C[n+]1c2n(c3nc(N)[nH]c(=O)c31)C1OC(C2)C(O)C1O` (centres undefined) was tested, and the GI50 [1] was > 100 µM (inactive), the GI50 [2] was > 100 µM (inactive) and the GI50 [3] was > 100 µM (inactive). The GI50 [4] was > 100 µM (inactive), the GI50 [5] was > 100 µM (inactive) and the GI50 [6] was > 100 µM (inactive). For the same compound, the GI50 [7] was > 100 µM (inactive), the GI50 [8] was > 100 µM (inactive) and the GI50 [9] was > 100 µM (inactive). The GI50 [10] was > 100 µM (inactive), the GI50 [11] was > 100 µM (inactive) and the GI50 [12] was > 100 µM (inactive). The GI50 [13] was > 100 µM (inactive), the GI50 [14] was > 100 µM (inactive) and the GI50 [17] was > 100 µM (inactive). The GI50 [18] was > 100 µM (inactive), the GI50 [19] was > 100 µM (inactive) and the GI50 [56] was > 100 µM (inactive). For the same compound, the GI50 [20] was > 100 µM (inactive), the GI50 [21] was > 100 µM (inactive) and the GI50 [22] was > 100 µM (inactive). For the same compound, the GI50 [57] was > 100 µM (inactive), the GI50 [23] was > 100 µM (inactive) and the GI50 [24] was > 100 µM (inactive). The GI50 [25] was > 100 µM (inactive), the GI50 [26] was > 100 µM (inactive) and the GI50 [27] was > 100 µM (inactive). For the same compound, the GI50 [28] was > 100 µM (inactive), the GI50 [29] was > 100 µM (inactive) and the GI50 [30] was > 100 µM (inactive). The GI50 [31] was > 100 µM (inactive), the GI50 [32] was > 100 µM (inactive) and the GI50 [33] was > 100 µM (inactive). The GI50 [34] was > 100 µM (inactive), the GI50 [58] was > 100 µM (inactive) and the GI50 [35] was > 100 µM (inactive). For the same compound, the GI50 [59] was > 100 µM (inactive), the GI50 [37] was > 100 µM (inactive) and the GI50 [38] was > 100 µM (inactive). The GI50 [39] was > 100 µM (inactive), the GI50 [40] was > 100 µM (inactive) and the GI50 [41] was > 100 µM (inactive). The GI50 [42] was > 100 µM (inactive), the GI50 [43] was > 100 µM (inactive) and the GI50 [44] was > 100 µM (inactive). The GI50 [45] was > 100 µM (inactive), the GI50 [46] was > 100 µM (inactive) and the GI50 [47] was > 100 µM (inactive). The GI50 [48] was > 100 µM (inactive), the GI50 [49] was > 100 µM (inactive) and the GI50 [50] was > 100 µM (inactive). The GI50 [51] was > 100 µM (inactive), the GI50 [52] was > 100 µM (inactive) and the GI50 [53] was > 100 µM (inactive). For the same compound, the GI50 [54] was > 100 µM (inactive) and the GI50 [55] was > 100 µM (inactive).

Reference: ChEMBL document CHEMBL1201862, “PubChem BioAssay data set” (2004)
